Experimental data published in PubChem BioAssay (NCI).
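Test compounds were applied to cells in 96-well plates for 48 hours at 5 doses. Here, GI50 denotes the concentration required for 50% inhibition of growth. The concentration for full growth arrest is given as TGI.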

Experiments:
Experiment in all cases: NCI-60 cell line screen, 48 h
SF-268 CNS = test system: SF-268 CNS
CCRF-CEM leukemia = test system: CCRF-CEM leukemia
RPMI-8226 leukemia = test system: RPMI-8226 leukemia
A549 NSCLC = test system: A549 NSCLC
SK-MEL-5 melanoma = test system: SK-MEL-5 melanoma
SK-MEL-28 melanoma = test system: SK-MEL-28 melanoma
NCI/ADR-RES ovarian = test system: NCI/ADR-RES ovarian
HCC-2998 colon = test system: HCC-2998 colon
TK-10 renal = test system: TK-10 renal
K-562 leukemia = test system: K-562 leukemia

SMILES | GI50 (SF-268 CNS) [µM] | TGI (SF-268 CNS) [µM] | GI50 (CCRF-CEM leukemia) [µM] | TGI (CCRF-CEM leukemia) [µM] | GI50 (RPMI-8226 leukemia) [µM] | TGI (RPMI-8226 leukemia) [µM] | GI50 (A549 NSCLC) [µM] | TGI (A549 NSCLC) [µM] | GI50 (SK-MEL-5 melanoma) [µM] | TGI (SK-MEL-5 melanoma) [µM] | GI50 (SK-MEL-28 melanoma) [µM] | TGI (SK-MEL-28 melanoma) [µM] | GI50 (NCI/ADR-RES ovarian) [nM] | TGI (NCI/ADR-RES ovarian) [µM] | GI50 (HCC-2998 colon) [nM] | TGI (HCC-2998 colon) [µM] | GI50 (TK-10 renal) [µM] | TGI (TK-10 renal) [µM] | GI50 (K-562 leukemia) [µM] | TGI (K-562 leukemia) [µM]
COc1cnc2c(c1)C(=O)c1c-2n(CCCN2CCN(CCO)CC2)c(=O)c2cc([N+](=O)[O-])ccc12 | 1.07 | 4.92 | 0.494 | > 100 | 1.57 | 6.75 | 1.13 | 2.48 | 1.44 | 2.78 | 2.01 | 4.16 | 1290 | 3.86 | 11700 | 24.9 | 2.77 | 11.9 |  | 
CCOC(=O)CNC(=O)C(CSC(=O)N(C)O)NC(=O)CCC(N)C(=O)O (stereo not given) | > 2000 | > 2000 | > 2000 |  | > 2000 | > 2000 | > 2000 | > 2000 | > 2000 | > 2000 | > 2000 | > 2000 |  |  |  |  | > 2000 | > 2000 | > 2000 | > 2000
NNC(=S)N/N=C/C(Cl)=C(\Cl)C(=O)O |  | > 100 |  | > 100 |  | > 100 |  | > 100 |  | > 100 |  | > 100 |  |  |  | > 100 |  | > 100 |  | > 100
COC(=O)C(=O)C1CCCCC(C2=NC3NN=C(N)N3C2=O)C1=O (stereo not given) |  | > 100 |  | > 100 |  |  |  | > 100 |  | > 100 |  | > 100 |  |  |  | > 100 |  | > 100 |  | > 100
NC(=O)CCC(NC(=O)C(F)(F)F)C(=O)O (stereo not given) |  | > 100 |  | > 100 |  | > 100 |  | > 100 |  | > 100 |  | > 100 |  |  |  | > 100 |  | > 100 |  | > 100
CN(C)CCOc1nc2ccccc2c2c1-c1ccc(Cl)cc1C2=O | 0.577 | 2.32 | 0.363 | 2.46 | 0.617 | 2.35 | 0.458 | 5.25 | 1.36 | 2.67 | 1.65 | 3.15 | 696 | 4.4 | 970 | 2.49 | 1.36 | 3.18 |  | 
CC12C(=O)N(CCN)C(=O)C1C1c3ccccc3C2c2ccccc21 (stereo not given) |  | > 100 |  | > 100 |  | > 100 |  | > 100 |  | > 100 |  | > 100 |  |  |  | > 100 |  | > 100 |  | > 100
C[C@]12CCCC(=O)C1C[C@H](C(=O)O)CC2 (stereo not given in full) |  | > 100 |  | > 100 |  | > 100 |  | > 100 |  |  |  | > 100 |  |  |  | > 100 |  | > 100 |  | > 100
Cc1cccc(N=C2NC(=O)C(CC(=O)Nc3ccc(Cl)cc3C)S2)c1 (stereo not given) |  | > 100 |  | > 100 |  | > 100 |  | > 100 |  | > 100 |  | > 100 |  |  |  | > 100 |  | > 100 |  | > 100
CCNCCNc1cc(-c2cccc(C(F)(F)F)c2)c(C#N)c2nc3ccccc3n12 | 1.57 | 3.12 | 0.29 | 0.798 |  |  | 1.48 | 3 | 1.76 | 3.16 | 1.86 | 3.63 | 1810 | 3.86 | 1650 | 3.13 | 2.14 | 3.69 |  | 
Cc1ccc(-c2cc(/C=N/O)on2)cc1 | > 100 | > 100 | 46.9 | > 100 | 36.9 | > 100 | 51 | > 100 |  |  | > 100 | > 100 | 45400 | > 100 |  |  | 63.8 | > 100 |  | 
CCc1oc2ccc(OC)c3c2c1C=CC=C3 |  | > 100 |  | > 100 |  | > 100 |  | > 100 |  | > 100 |  | > 100 |  |  |  | > 100 |  | > 100 |  | > 100
Cc1cc(=O)[nH]c(CNC(=O)Cc2ccccc2)n1 |  | > 100 |  | > 100 |  | > 100 |  | > 100 |  |  |  | > 100 |  |  |  | > 100 |  | > 100 |  | > 100
CC12OC3CC(O1)C1(C=O)C4CCC5(C)C(c6ccc(=O)oc6)CCC5(O)C4CCC1(C3)O2 (stereo not given) |  | 0.229 |  | 1.2 |  | 0.304 |  | 0.194 |  | 0.328 |  | 1.49 |  |  |  | 2 |  | 0.472 |  | > 100
CCC[CH2][Sn]1([CH2]CCC)[O]C(=O)c2cc(C)ccc2[O]1 | 0.268 | 0.959 | 0.167 | 0.561 | 0.193 | 0.599 | 1.92 | 3.32 | 0.854 | 2.11 | 0.682 | 2.03 |  |  | 670 | 1.98 | 0.385 | 1.18 | 0.222 | 1.16
NC(=O)NC(=O)C1CCCCC1C(=O)O (stereo not given) |  | > 100 |  | > 100 |  | > 100 |  | > 100 |  | > 100 |  | > 100 |  | > 100 |  |  |  | > 100 |  | > 100
O=[N+]([O-])c1cc(/C=N/NS(=O)(=O)c2ccc(F)cc2)c(O)c([N+](=O)[O-])c1 |  | > 100 |  | > 100 |  | > 100 |  | > 100 |  | 72 |  | > 100 |  |  |  | > 100 |  | > 100 |  | > 100
C[N+]1=c2c3cccc4cccc(c(=O)n2CCC1)c43 |  | 60.2 |  | 28.9 |  | 52.3 |  | 96.8 |  | 32.5 |  | 39.6 |  |  |  |  |  | 56.4 |  | 32
CP(C)C.[Ag][I] |  | > 100 |  | > 100 |  | > 100 |  | > 100 |  | 46.4 |  | > 100 |  |  |  | > 100 |  | > 100 |  | > 100
CCOC(=O)N1CCC(=O)C[C@@H]1C/C=C/P1(=O)O[C@H](c2ccccc2)C(C)N1C(C)C (stereo not given in full) |  | > 100 |  |  |  | > 100 |  | > 100 |  | > 100 |  | > 100 |  |  |  | > 100 |  | > 100 |  | > 100
